Measured values from PubChem BioAssay (NCI).
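Method: 48-hour compound exposure of cells in 96-well plates, five concentrations, linear interpolation of endpoints. TGI marks complete inhibition of growth.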

Tests used:
Test in all cases: inhibition of tumour cell growth, NCI panel, 48 h
A549 NSCLC = tested on: A549 NSCLC
DU-145 prostate = tested on: DU-145 prostate
BT-549 breast = tested on: BT-549 breast
MALME-3M melanoma = tested on: MALME-3M melanoma
T-47D breast = tested on: T-47D breast
SW-620 colon = tested on: SW-620 colon
SK-MEL-28 melanoma = tested on: SK-MEL-28 melanoma
OVCAR-3 ovarian = tested on: OVCAR-3 ovarian
HT29 colon = tested on: HT29 colon
NCI/ADR-RES ovarian = tested on: NCI/ADR-RES ovarian
MDA-MB-435 = tested on: MDA-MB-435
RXF 393 renal = tested on: RXF 393 renal
HCT-15 colon = tested on: HCT-15 colon
HCC-2998 colon = tested on: HCC-2998 colon
SK-OV-3 ovarian = tested on: SK-OV-3 ovarian
SN12C renal = tested on: SN12C renal
CCRF-CEM leukemia = tested on: CCRF-CEM leukemia
COLO 205 colon = tested on: COLO 205 colon
UO-31 renal = tested on: UO-31 renal
OVCAR-5 ovarian = tested on: OVCAR-5 ovarian
KM12 colon = tested on: KM12 colon
MDA-N = tested on: MDA-N
SF-539 CNS = tested on: SF-539 CNS
OVCAR-4 ovarian = tested on: OVCAR-4 ovarian
CAKI-1 renal = tested on: CAKI-1 renal
OVCAR-8 ovarian = tested on: OVCAR-8 ovarian
SF-295 CNS = tested on: SF-295 CNS
A498 renal = tested on: A498 renal
ACHN renal = tested on: ACHN renal
UACC-257 melanoma = tested on: UACC-257 melanoma
SNB-19 CNS = tested on: SNB-19 CNS
SK-MEL-2 melanoma = tested on: SK-MEL-2 melanoma
HOP-62 NSCLC = tested on: HOP-62 NSCLC
K-562 leukemia = tested on: K-562 leukemia
SNB-75 CNS = tested on: SNB-75 CNS
PC-3 prostate = tested on: PC-3 prostate
EKVX NSCLC = tested on: EKVX NSCLC
HCT-116 colon = tested on: HCT-116 colon
U251 CNS = tested on: U251 CNS
NCI-H226 lung = tested on: NCI-H226 lung
NCI-H23 lung = tested on: NCI-H23 lung
SF-268 CNS = tested on: SF-268 CNS
MCF7 breast = tested on: MCF7 breast
RPMI-8226 leukemia = tested on: RPMI-8226 leukemia
M14 melanoma = tested on: M14 melanoma
MDA-MB-231 breast = tested on: MDA-MB-231 breast
786-0 renal = tested on: 786-0 renal
NCI-H460 lung = tested on: NCI-H460 lung
UACC-62 melanoma = tested on: UACC-62 melanoma
MOLT-4 leukemia = tested on: MOLT-4 leukemia
NCI-H522 lung = tested on: NCI-H522 lung
TK-10 renal = tested on: TK-10 renal
HL-60(TB) leukemia = tested on: HL-60(TB) leukemia
SK-MEL-5 melanoma = tested on: SK-MEL-5 melanoma
SR leukemia = tested on: SR leukemia
IGROV1 ovarian = tested on: IGROV1 ovarian
HOP-92 NSCLC = tested on: HOP-92 NSCLC
LOX IMVI melanoma = tested on: LOX IMVI melanoma

For `CC(C)(C)OC/C=C(\Br)CO`, the TGI (A549 NSCLC) was > 100 µM, the TGI (DU-145 prostate) was > 100 µM and the TGI (BT-549 breast) was > 100 µM. The TGI (MALME-3M melanoma) was > 100 µM, the TGI (T-47D breast) was > 100 µM and the TGI (SW-620 colon) was > 100 µM. For the same compound, the TGI (SK-MEL-28 melanoma) was > 100 µM, the TGI (OVCAR-3 ovarian) was > 100 µM and the TGI (HT29 colon) was > 100 µM. The TGI (NCI/ADR-RES ovarian) was > 100 µM, the TGI (MDA-MB-435) was > 100 µM and the TGI (RXF 393 renal) was > 100 µM. For the same compound, the TGI (HCT-15 colon) was > 100 µM, the TGI (HCC-2998 colon) was > 100 µM and the TGI (SK-OV-3 ovarian) was > 100 µM. For the same compound, the TGI (SN12C renal) was > 100 µM, the TGI (CCRF-CEM leukemia) was > 100 µM and the TGI (COLO 205 colon) was > 100 µM. For the same compound, the TGI (UO-31 renal) was > 100 µM, the TGI (OVCAR-5 ovarian) was > 100 µM and the TGI (KM12 colon) was > 100 µM. The TGI (MDA-N) was > 100 µM, the TGI (SF-539 CNS) was > 100 µM and the TGI (OVCAR-4 ovarian) was > 100 µM. The TGI (CAKI-1 renal) was > 100 µM, the TGI (OVCAR-8 ovarian) was > 100 µM and the TGI (SF-295 CNS) was > 100 µM. For the same compound, the TGI (A498 renal) was > 100 µM, the TGI (ACHN renal) was > 100 µM and the TGI (UACC-257 melanoma) was > 100 µM. For the same compound, the TGI (SNB-19 CNS) was > 100 µM, the TGI (SK-MEL-2 melanoma) was > 100 µM and the TGI (HOP-62 NSCLC) was > 100 µM. The TGI (K-562 leukemia) was > 100 µM, the TGI (SNB-75 CNS) was > 100 µM and the TGI (PC-3 prostate) was > 100 µM. The TGI (EKVX NSCLC) was > 100 µM, the TGI (HCT-116 colon) was > 100 µM and the TGI (U251 CNS) was > 100 µM. The TGI (NCI-H226 lung) was > 100 µM, the TGI (NCI-H23 lung) was > 100 µM and the TGI (SF-268 CNS) was > 100 µM. The TGI (MCF7 breast) was > 100 µM, the TGI (RPMI-8226 leukemia) was > 100 µM and the TGI (M14 melanoma) was > 100 µM. For the same compound, the TGI (MDA-MB-231 breast) was > 100 µM, the TGI (786-0 renal) was > 100 µM and the TGI (NCI-H460 lung) was > 100 µM. The TGI (UACC-62 melanoma) was > 100 µM and the TGI (MOLT-4 leukemia) was > 100 µM.

With `COc1ccc(N[C@H]([C@@H](c2ccccc2)S(=O)c2ccc(C)cc2)C(F)(F)F)cc1` (stereo not given in full) the TGI (NCI-H522 lung) was > 100 µM, the TGI (A549 NSCLC) was > 100 µM and the TGI (DU-145 prostate) was > 100 µM. The TGI (BT-549 breast) was > 100 µM, the TGI (MALME-3M melanoma) was > 100 µM and the TGI (T-47D breast) was > 100 µM. For the same compound, the TGI (SW-620 colon) was > 100 µM, the TGI (SK-MEL-28 melanoma) was > 100 µM and the TGI (OVCAR-3 ovarian) was > 100 µM. The TGI (HT29 colon) was > 100 µM, the TGI (NCI/ADR-RES ovarian) was > 100 µM and the TGI (MDA-MB-435) was > 100 µM. For the same compound, the TGI (RXF 393 renal) was > 100 µM, the TGI (HCT-15 colon) was > 100 µM and the TGI (HCC-2998 colon) was > 100 µM. The TGI (TK-10 renal) was > 100 µM, the TGI (HL-60(TB) leukemia) was 73.7 µM and the TGI (SK-OV-3 ovarian) was > 100 µM. For the same compound, the TGI (SN12C renal) was > 100 µM, the TGI (CCRF-CEM leukemia) was 66.6 µM and the TGI (COLO 205 colon) was > 100 µM. The TGI (UO-31 renal) was > 100 µM, the TGI (OVCAR-5 ovarian) was > 100 µM and the TGI (SK-MEL-5 melanoma) was > 100 µM. For the same compound, the TGI (KM12 colon) was > 100 µM, the TGI (SR leukemia) was > 100 µM and the TGI (MDA-N) was > 100 µM. For the same compound, the TGI (SF-539 CNS) was 63.2 µM, the TGI (OVCAR-4 ovarian) was 79.5 µM and the TGI (CAKI-1 renal) was > 100 µM. The TGI (OVCAR-8 ovarian) was > 100 µM, the TGI (SF-295 CNS) was > 100 µM and the TGI (ACHN renal) was > 100 µM. The TGI (UACC-257 melanoma) was > 100 µM, the TGI (SNB-19 CNS) was > 100 µM and the TGI (SK-MEL-2 melanoma) was > 100 µM. The TGI (IGROV1 ovarian) was > 100 µM, the TGI (K-562 leukemia) was > 100 µM and the TGI (SNB-75 CNS) was > 100 µM. The TGI (PC-3 prostate) was > 100 µM, the TGI (EKVX NSCLC) was > 100 µM and the TGI (HCT-116 colon) was > 100 µM. The TGI (U251 CNS) was 50.2 µM, the TGI (NCI-H226 lung) was > 100 µM and the TGI (NCI-H23 lung) was > 100 µM. For the same compound, the TGI (HOP-92 NSCLC) was > 100 µM, the TGI (MCF7 breast) was > 100 µM and the TGI (LOX IMVI melanoma) was > 100 µM. For the same compound, the TGI (M14 melanoma) was > 100 µM, the TGI (MDA-MB-231 breast) was > 100 µM and the TGI (786-0 renal) was > 100 µM. For the same compound, the TGI (NCI-H460 lung) was > 100 µM, the TGI (UACC-62 melanoma) was > 100 µM and the TGI (MOLT-4 leukemia) was > 100 µM.

In the case of `CC(C)=CCC/C(C)=C/CCC(C(=O)COCc1ccccc1)P1(=O)OC(C)(C)CN1C(C)(C)C` (stereo not given), the TGI (NCI-H522 lung) is reported as > 100 µM, the TGI (A549 NSCLC) is reported as > 100 µM and the TGI (DU-145 prostate) is reported as > 100 µM. The TGI (BT-549 breast) was > 100 µM, the TGI (T-47D breast) was > 100 µM and the TGI (SW-620 colon) was > 100 µM. The TGI (SK-MEL-28 melanoma) was > 100 µM, the TGI (OVCAR-3 ovarian) was > 100 µM and the TGI (HT29 colon) was > 100 µM. For the same compound, the TGI (NCI/ADR-RES ovarian) was > 100 µM, the TGI (MDA-MB-435) was > 100 µM and the TGI (RXF 393 renal) was > 100 µM. For the same compound, the TGI (HCT-15 colon) was > 100 µM, the TGI (TK-10 renal) was > 100 µM and the TGI (SK-OV-3 ovarian) was > 100 µM. The TGI (SN12C renal) was > 100 µM, the TGI (CCRF-CEM leukemia) was 93.7 µM and the TGI (COLO 205 colon) was > 100 µM. For the same compound, the TGI (UO-31 renal) was > 100 µM, the TGI (OVCAR-5 ovarian) was > 100 µM and the TGI (SK-MEL-5 melanoma) was > 100 µM. The TGI (KM12 colon) was > 100 µM, the TGI (SR leukemia) was 46.5 µM and the TGI (MDA-N) was > 100 µM. The TGI (SF-539 CNS) was > 100 µM, the TGI (OVCAR-4 ovarian) was 81.2 µM and the TGI (CAKI-1 renal) was > 100 µM. The TGI (SF-295 CNS) was > 100 µM, the TGI (ACHN renal) was > 100 µM and the TGI (UACC-257 melanoma) was > 100 µM. For the same compound, the TGI (SNB-19 CNS) was > 100 µM, the TGI (SK-MEL-2 melanoma) was > 100 µM and the TGI (HOP-62 NSCLC) was > 100 µM. The TGI (IGROV1 ovarian) was > 100 µM, the TGI (K-562 leukemia) was 73.9 µM and the TGI (SNB-75 CNS) was > 100 µM. For the same compound, the TGI (PC-3 prostate) was > 100 µM, the TGI (EKVX NSCLC) was > 100 µM and the TGI (HCT-116 colon) was > 100 µM. For the same compound, the TGI (U251 CNS) was > 100 µM, the TGI (NCI-H226 lung) was > 100 µM and the TGI (NCI-H23 lung) was > 100 µM. The TGI (SF-268 CNS) was > 100 µM, the TGI (MCF7 breast) was > 100 µM and the TGI (LOX IMVI melanoma) was > 100 µM. For the same compound, the TGI (M14 melanoma) was > 100 µM, the TGI (MDA-MB-231 breast) was > 100 µM and the TGI (786-0 renal) was > 100 µM. For the same compound, the TGI (NCI-H460 lung) was > 100 µM, the TGI (UACC-62 melanoma) was > 100 µM and the TGI (MOLT-4 leukemia) was 38.6 µM.
